The values below come from patent publication US20250263405A1, “HISTONE DEACETYLASE 6 INHIBITOR COMPOUNDS AND USES THEREOF” (VALO HEALTH, INC., priority 2021, published 2025).

SMILES strings stand for the structures. pIC50: −log10 of the molar value.

The term pIC50 denotes the IC50 on a negative log10 scale, so that one unit is a factor of ten. Low values mean a large IC50, high ones a small IC50.

HDAC6, sequence (Q9UBN7 whole entry): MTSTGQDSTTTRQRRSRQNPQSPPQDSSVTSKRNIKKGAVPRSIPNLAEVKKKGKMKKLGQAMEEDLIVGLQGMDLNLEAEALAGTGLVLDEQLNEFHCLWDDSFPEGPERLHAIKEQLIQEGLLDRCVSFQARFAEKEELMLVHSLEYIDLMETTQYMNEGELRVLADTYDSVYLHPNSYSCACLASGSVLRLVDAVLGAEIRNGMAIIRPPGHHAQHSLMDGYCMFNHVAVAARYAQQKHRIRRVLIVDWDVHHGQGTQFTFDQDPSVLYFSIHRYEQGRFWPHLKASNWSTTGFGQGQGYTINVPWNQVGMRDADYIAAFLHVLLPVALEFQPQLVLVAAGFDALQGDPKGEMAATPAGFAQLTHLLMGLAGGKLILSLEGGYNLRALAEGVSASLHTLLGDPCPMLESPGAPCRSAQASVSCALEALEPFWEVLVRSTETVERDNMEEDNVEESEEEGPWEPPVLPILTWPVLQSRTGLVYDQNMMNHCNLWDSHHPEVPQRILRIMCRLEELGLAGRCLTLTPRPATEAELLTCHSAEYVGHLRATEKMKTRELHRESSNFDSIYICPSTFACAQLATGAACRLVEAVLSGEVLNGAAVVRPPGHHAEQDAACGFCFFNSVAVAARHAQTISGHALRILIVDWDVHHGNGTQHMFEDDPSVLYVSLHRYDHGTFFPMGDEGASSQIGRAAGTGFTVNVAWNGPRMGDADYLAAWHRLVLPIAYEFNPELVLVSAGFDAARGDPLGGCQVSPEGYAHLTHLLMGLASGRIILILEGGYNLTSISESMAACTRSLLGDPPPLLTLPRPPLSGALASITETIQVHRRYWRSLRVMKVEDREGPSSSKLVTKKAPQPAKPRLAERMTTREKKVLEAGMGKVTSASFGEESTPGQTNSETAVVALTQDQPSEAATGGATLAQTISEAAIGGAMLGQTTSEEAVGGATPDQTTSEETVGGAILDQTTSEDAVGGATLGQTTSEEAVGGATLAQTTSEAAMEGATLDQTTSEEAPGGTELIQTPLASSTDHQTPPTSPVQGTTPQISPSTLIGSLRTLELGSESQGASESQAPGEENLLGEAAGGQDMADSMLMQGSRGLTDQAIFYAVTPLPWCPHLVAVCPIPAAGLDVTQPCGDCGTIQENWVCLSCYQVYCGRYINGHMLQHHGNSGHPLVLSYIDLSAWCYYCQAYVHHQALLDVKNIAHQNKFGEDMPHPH

The assay has as its target HDAC6 (Homo sapiens (Human), UniProt Q9UBN7). In words: HDAC6 TR-FRET displacement assay. It counts as binding. Conditions: displacement of fluorescein labeled tracer from HDAC6; 2 nM HDAC6, 1 nM tracer, 0.5 nM Tb-anti-GST antibody; 30 min pre-incubation, 6 hours at 25° C. An excerpt: HDAC6 and Tb-anti-GST antibody were purchased from Signal Chem (cat #PC124) and Cisbio (cat #61GSTTAH), respectively. HEPES, pH 7.5 was purchased from Teknova (Cat #H1575). All other buffer components, NaCl (cat #S5150), KCl (cat #60121), Triton X-100 (cat #T9284), GSH (cat #G4251), BGG (cat #G5009), and BSA (cat #A2153) were purchased from SIGMA.
Displacement of fluorescein labeled tracer 2-(6-hydroxy-3-oxo-3H-xanthen-9-yl)-5-({[5-(4-{[7-(hydroxycarbamoyl)-2H,3H,4H,5H-thieno[2,3-f][1,4]oxazepine-4-carbonyl]amino}phenoxy)pentyl]carbamothioyl}amino)benzoic acid from HDAC6 was measured in vitro using a TR-FRET assay. The assays were performed in 1536-well plates in a total volume of 6 μL in assay buffer consisting of 50 mM HEPES pH 7.5, 50 mM NaCl, 50 mM KCl, 0.01% Triton X-100, 0.5 mM GSH, 0.03% BGG, 0.01% BSA.
For concentration response curves (IC50 determination), Compounds were serially diluted 3-fold from 2 mM highest concentration to generate a 10-point concentration gradient. To perform the assay, 30 nL of compound gradient solutions were transferred to the assay plate using the ECHO acoustic dispenser to achieve a final concentration range of 10 μM to 0.000508 uM in 6 μL reaction. 3 μL of HDAC6 in assay buffer were added to the assay plates and pre-incubate at room temp. for 30 mins. After pre-incubation, 3 μL of the tracer and TB-anti-GST antibody mix were added to the assay plates. The final concentrations of HDAC6, tracer, and TB-anti-GST antibody for each assay are 2 nM, 1 nM, and 0.5 nM, respectively. Binding reactions were equilibrated at 25° C. for an additional 6 hours, then read in endpoint mode on the BMG PheraStar (BMG labtech) equipped with a 337-520-490 optical module. The ratio of the 520/490 nm emission was calculated to determine the relative amounts of HDAC6 and tracer complex residue in each well.
The percent inhibition of HDAC6 (IC50) was calculated according to the following equation.
As set forth in Table 1, “A” indicates an HDAC6 IC50 value of less than 200 nM; “B” indicates an HDAC6 IC50 value of greater than or equal to 200 nM and less than 500 nM; and “C” indicates an HDAC6 IC50 value of greater than or equal to 500 nM and less than 5 μM.
For orientation: TR-FRET usually uses a lanthanide donor and a delayed reading to cut background.
Turning to `CC1(C(=O)N2Cc3ccc(-c4noc(C(F)(F)F)n4)cc3OC[C@@H]2c2ccccc2)CCCOC1` (single isomer, unassigned) [Compound 13], the pIC50 is more than 6.70.

`CC1(C(=O)N2Cc3ccc(-c4noc(C(F)(F)F)n4)cc3OC[C@@H]2c2ccccc2)CCCOC1` (single isomer, unassigned) [Compound 14] showed a pIC50 of 5.30 to 6.30.

`C[C@H]1COc2cc(-c3noc(C(F)(F)F)n3)cc(F)c2CN1C(=O)C1(C)COC1` [Compound 1, (S)-(6-fluoro-3-methyl-8-(5-(trifluoromethyl)-1,2,4-oxadiazol-3-yl)-2,3-dihydrobenzo[f][1,4]oxazepin-4(5H)-yl)(3-methyloxetan-3-yl)methanone]: the pIC50 is more than 6.70.

`CC1(C(=O)N2Cc3ccc(-c4nnc(C(F)F)o4)cc3OC[C@@H]2c2ccccc2)CCOCC1` [Compound 3, (S)-(8-(5-(difluoromethyl)-1,3,4-oxadiazol-2-yl)-3-phenyl-2,3-dihydrobenzo[f][1,4]oxazepin-4(5H)-yl)(4-methyltetrahydro-2H-pyran-4-yl)methanone] showed a pIC50 of more than 6.70.

Compound `CC1(C(=O)N2Cc3ccc(-c4noc(C(F)(F)F)n4)cc3OC[C@@H]2c2ccccc2)CCOCC1` [Compound 4, (S)-(4-methyltetrahydro-2H-pyran-4-yl)(3-phenyl-8-(5-(trifluoromethyl)-1,2,4-oxadiazol-3-yl)-2,3-dihydrobenzo[f][1,4]oxazepin-4(5H)-yl)methanone] had a pIC50 of more than 6.70.

For `CC1(C(=O)N2Cc3ccc(-c4noc(C(F)(F)F)n4)cc3OC[C@@H]2c2ccccc2)COC1` [Compound 5, (3S)-4-[(3-methyloxetan-3-yl)carbonyl]-3-phenyl-8-[5-(trifluoromethyl)-1,2,4-oxadiazol-3-yl]-3,5-dihydro-2H-1,4-benzoxazepine], the pIC50 was more than 6.70.

For `O=C(N1Cc2ccc(-c3noc(C(F)(F)F)n3)cc2OC[C@@H]1c1ccccc1)C(F)(F)F` [Compound 6, (S)-2,2,2-trifluoro-1-(3-phenyl-8-(5-(trifluoromethyl)-1,2,4-oxadiazol-3-yl)-2,3-dihydrobenzo[f][1,4]oxazepin-4(5H)-yl)ethan-1-one], the pIC50 was 5.30 to 6.30.

`COCC1(C(=O)N2Cc3ccc(-c4noc(C(F)(F)F)n4)cc3OC[C@@H]2c2ccccc2)COC1` [Compound 7, (3S)-4-{[3-(methoxymethyl)oxetan-3-yl]carbonyl}-3-phenyl-8-[5-(trifluoromethyl)-1,2,4-oxadiazol-3-yl]-3,5-dihydro-2H-1,4-benzoxazepine] gave a pIC50 of more than 6.70.

In the case of `CC(C)(C)OC(=O)N1Cc2ccc(-c3noc(C(F)(F)F)n3)cc2OC[C@@H]1c1ccccc1` [Compound 8, tert-butyl (S)-3-phenyl-8-(5-(trifluoromethyl)-1,2,4-oxadiazol-3-yl)-2,3-dihydrobenzo[f][1,4]oxazepine-4(5H)-carboxylate], the pIC50 is 5.30 to 6.30.

`CC(C)(C)C(=O)N1Cc2c(F)cc(-c3noc(C(F)(F)F)n3)cc2OC[C@@H]1c1ccccc1` [Compound 15, (S)-1-(6-fluoro-3-phenyl-8-(5-(trifluoromethyl)-1,2,4-oxadiazol-3-yl)-2,3-dihydrobenzo[f][1,4]oxazepin-4(5H)-yl)-2,2-dimethylpropan-1-one] showed a pIC50 of 6.30 to 6.70.

`C[C@H]1COc2cc(-c3noc(C(F)(F)F)n3)ccc2CN1C(=O)C1(C)CCOCC1` [Compound 16, (3S)-3-methyl-4-[(4-methyloxan-4-yl)carbonyl]-8-[5-(trifluoromethyl)-1,2,4-oxadiazol-3-yl]-3,5-dihydro-2H-1,4-benzoxazepine] showed a pIC50 of more than 6.70.

`C[C@H]1COc2cc(-c3noc(C(F)(F)F)n3)ccc2CN1C(=O)C(C)(C)C` [Compound 17, 2,2-dimethyl-1-[(3S)-3-methyl-8-[5-(trifluoromethyl)-1,2,4-oxadiazol-3-yl]-3,5-dihydro-2H-1,4-benzoxazepin-4-yl]propan-1-one] had a pIC50 of more than 6.70.

The compound `C[C@H]1COc2cc(-c3noc(C(F)(F)F)n3)cc(F)c2CN1C(=O)C1(C)CCOCC1` [Compound 18, (3S)-6-fluoro-3-methyl-4-[(4-methyloxan-4-yl)carbonyl]-8-[5-(trifluoromethyl)-1,2,4-oxadiazol-3-yl]-3,5-dihydro-2H-1,4-benzoxazepine] had a pIC50 of more than 6.70.

Take `C[C@H]1COc2cc(-c3noc(C(F)(F)F)n3)cc(F)c2CN1C(=O)C(C)(C)C` [Compound 19, 1-[(3S)-6-fluoro-3-methyl-8-[5-(trifluoromethyl)-1,2,4-oxadiazol-3-yl]-3,5-dihydro-2H-1,4-benzoxazepin-4-yl]-2,2-dimethylpropan-1-one]: the pIC50 was more than 6.70.

Turning to `C[C@H]1COc2cc(-c3nnc(C(F)F)o3)ccc2CN1C(=O)C(C)(C)C` [Compound 20, (S)-1-(8-(5-(difluoromethyl)-1,3,4-oxadiazol-2-yl)-3-methyl-2,3-dihydrobenzo[f][1,4]oxazepin-4(5H)-yl)-2,2-dimethylpropan-1-one], the pIC50 was more than 6.70.

`CC(C)(C)C(=O)N1Cc2ccc(-c3nnc(C(F)F)o3)cc2OC[C@@H]1c1ccccc1` [Compound 22, (S)-1-(8-(5-(difluoromethyl)-1,3,4-oxadiazol-2-yl)-3-phenyl-2,3-dihydrobenzo[f][1,4]oxazepin-4(5H)-yl)-2,2-dimethylpropan-1-one]: the pIC50 was more than 6.70.

With `CC(C)(C)C(=O)N1Cc2ccc(-c3noc(C(F)(F)F)n3)cc2OC[C@@H]1c1ccccc1` [Compound 23, 2,2-dimethyl-1-[(3S)-3-phenyl-8-[5-(trifluoromethyl)-1,2,4-oxadiazol-3-yl]-3,5-dihydro-2H-1,4-benzoxazepin-4-yl]propan-1-one], the pIC50 is 6.30 to 6.70.

`C[C@H]1COc2cc(-c3noc(C(F)(F)F)n3)cc(F)c2CN1C(=O)C(F)(F)F` [Compound 24, (S)-2,2,2-trifluoro-1-(6-fluoro-3-methyl-8-(5-(trifluoromethyl)-1,2,4-oxadiazol-3-yl)-2,3-dihydrobenzo[f][1,4]oxazepin-4(5H)-yl)ethan-1-one] showed a pIC50 of more than 6.70.

`CC(=O)N1Cc2c(F)cc(-c3noc(C(F)(F)F)n3)cc2OC[C@@H]1C` [Compound 25, 1-[(3S)-6-fluoro-3-methyl-8-[5-(trifluoromethyl)-1,2,4-oxadiazol-3-yl]-3,5-dihydro-2H-1,4-benzoxazepin-4-yl]ethanone] had a pIC50 of 6.30 to 6.70.

`COC[C@H]1COc2cc(-c3noc(C(F)(F)F)n3)ccc2CN1C(=O)C1(C)CCOCC1` [Compound 26, (3S)-3-(methoxymethyl)-4-[(4-methyloxan-4-yl)carbonyl]-8-[5-(trifluoromethyl)-1,2,4-oxadiazol-3-yl]-3,5-dihydro-2H-1,4-benzoxazepine] gave a pIC50 of more than 6.70.

In turn, `COC[C@H]1COc2cc(-c3noc(C(F)(F)F)n3)ccc2CN1C(=O)C(C)(C)C` [Compound 27, 1-[(3S)-3-(methoxymethyl)-8-[5-(trifluoromethyl)-1,2,4-oxadiazol-3-yl]-3,5-dihydro-2H-1,4-benzoxazepin-4-yl]-2,2-dimethylpropan-1-one] had a pIC50 of more than 6.70.

Compound `CC1(C(=O)N2CCOc3cc(-c4noc(C(F)(F)F)n4)cc(F)c3C2)CCOCC1` [Compound 28, 6-fluoro-4-[(4-methyloxan-4-yl)carbonyl]-8-[5-(trifluoromethyl)-1,2,4-oxadiazol-3-yl]-3,5-dihydro-2H-1,4-benzoxazepine] gave a pIC50 of more than 6.70.

As to `CC(C)(C)C(=O)N1CCOc2cc(-c3noc(C(F)(F)F)n3)cc(F)c2C1` [Compound 29, 1-{6-fluoro-8-[5-(trifluoromethyl)-1,2,4-oxadiazol-3-yl]-3,5-dihydro-2H-1,4-benzoxazepin-4-yl}-2,2-dimethylpropan-1-one], the negative logarithm of the IC50 (pIC50) is more than 6.70.

Turning to `COCC1(C(=O)N2Cc3c(F)cc(-c4noc(C(F)(F)F)n4)cc3OC[C@@H]2C)COC1` [Compound 30, (3S)-6-fluoro-4-{[3-(methoxymethyl)oxetan-3-yl]carbonyl}-3-methyl-8-[5-(trifluoromethyl)-1,2,4-oxadiazol-3-yl]-3,5-dihydro-2H-1,4-benzoxazepine], the pIC50 is more than 6.70.

The compound `COCC1(C(=O)N2Cc3c(F)cc(-c4noc(C(F)(F)F)n4)cc3OC[C@@H]2C)CC1` [Compound 31, (3S)-6-fluoro-4-{[1-(methoxymethyl)cyclopropyl]carbonyl}-3-methyl-8-[5-(trifluoromethyl)-1,2,4-oxadiazol-3-yl]-3,5-dihydro-2H-1,4-benzoxazepine] gave a pIC50 of 6.30 to 6.70.
